Tests used:
Caspase-1 = target: T1, Caspase-1 (Homo sapiens, UniProt P29466); assay: Caspase-1 enzyme inhibition (Ki); assay type: biochemical; conditions: substrate Suc-YVAD-pNA 80 μM, 37° C., pH 7.5
T1 sequence (P29466 120-297 limits assumed): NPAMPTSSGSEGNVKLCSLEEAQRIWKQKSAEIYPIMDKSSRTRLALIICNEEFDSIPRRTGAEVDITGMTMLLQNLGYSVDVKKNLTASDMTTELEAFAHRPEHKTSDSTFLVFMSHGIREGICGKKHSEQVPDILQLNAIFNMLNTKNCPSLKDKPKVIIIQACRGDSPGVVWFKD
T1 sequence (P29466 317-404 limits assumed): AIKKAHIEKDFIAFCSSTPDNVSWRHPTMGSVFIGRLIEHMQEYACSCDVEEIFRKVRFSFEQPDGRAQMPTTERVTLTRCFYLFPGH
Procedure: Ki values for test compounds with the various caspases were obtained by the method of Margolin et al. (J. Biol. Chem., 272 pp. 7223-7228 (1997)). Assays were performed in 10 mM Tris (Sigma Corp, St Louis Mo.) pH 7.5, 1 mM Dithiothreitol (DTT, Research Organic INC, Cleveland, Ohio) and 0.1% CHAPS (Pierce, Rockford Ill.) at 37° C. For caspase-3, a solution of 8% glycerol was added to the assay buffer to improve enzyme stability. A 65 μL aliquot of the assay buffer and 5 μL aliquot of the appropriate dilutions of inhibitor in DMSO where pipetted into a 96 well plate, treated with 10 μL of caspase, then diluted in assay buffer (0.5-40 nM active protein by active site titration). A control containing DMSO but no compound was included for each determination. The plates were then incubated for 15 minutes at 37° C., before addition of the appropriate substrate (20 μL, final concentration 1-4×KM, final assay volume 100 μL) to initiate the reaction. Reaction rates were measured at 37° C. either by following the time dependant increase in absorbance at 405 nm (for the pNA substrates) or in fluorescence (Ex 390, Em 460) (for the AMC substrates). The rates obtained were plotted against inhibitor concentration and the data fit to the Morrison tight-binding equation for competitive inhibitors (Morrison, J. F., Biochem. Biophys. Acta, 185 pp. 269-286 (1969)). The substrates used for the individual assays were as follows:
Caspase-1 Suc-YVAD-pNA (Bachem, King of Prussia, Pa.) (final concentration in the assay 80 μM),

[1] = test system: Human whole blood, IL-1β production; assay: Whole blood assay for IL-1β production; assay type: cell-based; conditions: LPS-stimulated whole blood, IL-1β by ELISA
Procedure: The whole blood assay is a simple method for measuring the production of IL-1β (or other cytokines) and the activity of potential inhibitors. The complexity of this assay system, with its full complement of lymphoid and inflammatory cell types, spectrum of plasma proteins and red blood cells is an ideal in vitro representation of human in vivo physiologic conditions.
Set incubator or water bath at 30° C. Aliquot 0.25 ml of blood into 1.5 ml eppendorf tubes. Note: be sure to invert the whole blood sample tubes after every two aliquots. Differences in replicates may result if the cells sediment and are not uniformly suspended. Use of a positive displacement pipette will also minimize differences between replicate aliquots.
Prepare drug dilutions in sterile pyrogen-free saline by serial dilution. A dilution series which brackets the apparent Ki for a test compound determined in an ICE inhibition assay is generally used for the primary compound screen. For extremely hydrophobic compounds, prepare compound dilutions in fresh plasma obtained from the same blood donor or in PBS-containing 5% DMSO to enhance solubility.
Add 25 μl test compound dilution or vehicle control and gently mix the sample. Then add 5.0 μl LPS solution (250 ng/ml stocked prepared fresh: 5.0 ng/ml final concentration LPS), and mix again. Incubate the tubes at […] in a water bath for 16-18 hr with occasional mixing. Alternatively, the tubes can be placed in a rotator set at 4 rpm for the same incubation period. This assay should be set up in duplicate or triplicate with the following controls: negative control—no LPS; positive control—no test inhibitor; vehicle control—the highest concentration of DMSO or compound solvent used in the experiment. Additional saline is added to all control tubes to normalize volumes for both control and experimental whole blood test samples.
After the incubation period, whole blood samples are centrifuged for 10 minutes at ^˜2000 rpm in the microfuge, plasma is transferred to a fresh microfuge tube and centrifuged at 1000×g to pellet residual platelets if necessary. Plasma samples may be stored frozen at −70° C. prior to assay for cytokine levels by ELISA.
R & D Systems (614 McKinley Place N.E. Minneapolis, Minn. 55413) Quantikine kits may be used for measurement of IL-1β and TNF-α. The assays are performed according to the manufacture's directions. IL-1β levels of ^˜1-5 ng/ml in positive controls among a range of individuals may be observed. A 1:200 dilution of plasma for all samples is usually sufficient for experiments for ELISA results to fall on the linear range of the ELISA standard curves. It may be necessary to optimize standard dilutions if you observe differences in the whole blood assay. Nerad, J. L. et al., J. Leukocyte Biol., 52, pp. 687-692 (1992).

CNc1ccc(C(=O)N[C@@H](C)C(=O)N2CCC[C@H]2C(=O)N[C@H](C=O)CC(=O)O)cc1Cl [Example 7aa]
Ki (Caspase-1): < 10 nM | IC50 [1]: 2500 to 7500 nM

C[C@H](NC(=O)c1cccc(C#N)c1)C(=O)N1CCC[C@H]1C(=O)N[C@H](C=O)CC(=O)O [Example 7ad]
Ki (Caspase-1): 10 to 1000 nM | IC50 [1]: 2500 to 7500 nM

C[C@H](NC(=O)c1cccc(Cl)c1)C(=O)N1CCC[C@H]1C(=O)N[C@H](C=O)CC(=O)O [Example 7ah]
Ki (Caspase-1): < 10 nM | IC50 [1]: 2500 to 7500 nM

C[C@H](NC(=O)c1cc(Cl)cc(Cl)c1)C(=O)N1CCC[C@H]1C(=O)N[C@H](C=O)CC(=O)O [Example 7ai]
Ki (Caspase-1): < 10 nM | IC50 [1]: 2500 to 7500 nM

C[C@H](NC(=O)c1ccc(Cl)c(Cl)c1)C(=O)N1CCC[C@H]1C(=O)N[C@H](C=O)CC(=O)O [Example 7aj]
Ki (Caspase-1): < 10 nM | IC50 [1]: > 7500 nM

C[C@H](NC(=O)c1ccc(F)c(Cl)c1)C(=O)N1CCC[C@H]1C(=O)N[C@H](C=O)CC(=O)O [Example 7ak]
Ki (Caspase-1): < 10 nM | IC50 [1]: 2500 to 7500 nM

C[C@H](NC(=O)c1cccc(C(F)(F)F)c1)C(=O)N1CCC[C@H]1C(=O)N[C@H](C=O)CC(=O)O [Example 7am]
Ki (Caspase-1): < 10 nM | IC50 [1]: 2500 to 7500 nM

Cc1ccc(Cl)cc1C(=O)N[C@@H](C)C(=O)N1CCC[C@H]1C(=O)N[C@H](C=O)CC(=O)O [Example 7an]
Ki (Caspase-1): < 10 nM | IC50 [1]: 2500 to 7500 nM

Cc1c(Cl)cccc1C(=O)N[C@@H](C)C(=O)N1CCC[C@H]1C(=O)N[C@H](C=O)CC(=O)O [Example 7ao]
Ki (Caspase-1): 10 to 1000 nM | IC50 [1]: 2500 to 7500 nM

C[C@H](NC(=O)C(=O)c1ccccc1)C(=O)N1CCC[C@H]1C(=O)N[C@H](C=O)CC(=O)O [Example 7ap]
Ki (Caspase-1): 10 to 1000 nM | IC50 [1]: > 7500 nM

CC(C)[C@H](NC(=O)c1ccc(N)c(Cl)c1)C(=O)N1CC(F)(F)C[C@H]1C(=O)N[C@H](C=O)CC(=O)O [Example 27d]
Ki (Caspase-1): < 10 nM | IC50 [1]: < 2500 nM

CC[C@H](NC(=O)c1ccc(N)c(Cl)c1)C(=O)N1CC(F)(F)C[C@H]1C(=O)N[C@H](C=O)CC(=O)O [Example 27e]
Ki (Caspase-1): 10 to 1000 nM | IC50 [1]: < 2500 nM

C[C@H](NC(=O)c1cccc2ccccc12)C(=O)N1CC(F)(F)C[C@H]1C(=O)N[C@H](C=O)CC(=O)O [Example 27f]
Ki (Caspase-1): 10 to 1000 nM | IC50 [1]: 2500 to 7500 nM

C[C@H](NC(=O)c1cc(Cl)c(O)c(Cl)c1)C(=O)N1CC(F)(F)C[C@H]1C(=O)N[C@H](C=O)CC(=O)O [Example 27g]
Ki (Caspase-1): < 10 nM | IC50 [1]: 2500 to 7500 nM

COc1c(Cl)cc(C(=O)N[C@@H](C)C(=O)N2CC(F)(F)C[C@H]2C(=O)N[C@H](C=O)CC(=O)O)cc1Cl [Example 27h]
Ki (Caspase-1): 10 to 1000 nM | IC50 [1]: 2500 to 7500 nM

COc1c(C)cc(C(=O)N[C@@H](C)C(=O)N2CC(F)(F)C[C@H]2C(=O)N[C@H](C=O)CC(=O)O)cc1C [Example 27i]
Ki (Caspase-1): 10 to 1000 nM | IC50 [1]: 2500 to 7500 nM

C[C@H](NC(=O)c1nccc2ccccc12)C(=O)N1CC(F)(F)C[C@H]1C(=O)N[C@H](C=O)CC(=O)O [Example 27l]
Ki (Caspase-1): 10 to 1000 nM | IC50 [1]: 2500 to 7500 nM

C[C@H](NC(=O)c1cccc(C(F)(F)F)c1)C(=O)N1CC(F)(F)C[C@H]1C(=O)N[C@H](C=O)CC(=O)O [Example 27m]
Ki (Caspase-1): 10 to 1000 nM | IC50 [1]: 2500 to 7500 nM

C[C@H](NC(=O)c1ccc2[nH]cnc2c1)C(=O)N1CC(F)(F)C[C@H]1C(=O)N[C@H](C=O)CC(=O)O [Example 27n]
Ki (Caspase-1): 10 to 1000 nM | IC50 [1]: < 2500 nM

COc1ccc(C(=O)N[C@@H](C)C(=O)N[C@@H](C)C(=O)N[C@H](C=O)CC(=O)O)cc1 [Example 29s]
Ki (Caspase-1): 10 to 1000 nM | IC50 [1]: < 2500 nM

C[C@H](NC(=O)c1ccc(N(C)C)c(Cl)c1)C(=O)N1CCC[C@H]1C(=O)N[C@H](C=O)CC(=O)O [Example 122m, 3-({1-[2-(3-Chloro-4-dimethylamino-benzoylamino)-propionyl]-pyrrolidine-2-carbonyl}-amino)-4-oxo-butyric acid]
Ki (Caspase-1): 10 to 1000 nM | IC50 [1]: 2500 to 7500 nM

From patent publication US20030232986A1, “Inhibitors of caspases” (Vertex Pharmaceuticals Incorporated, priority 1998, published 2003)
